Patent US20260083865A1, “PROSTATE SPECIFIC MEMBRANE ANTIGEN (PSMA) LIGANDS AND USE THEREOF” (priority 2022, published 2026)
Values belong to the compound of their own block, whether it stands above or below them. Numbered stars: 1 amine (or outer) side, 2 acyl side, 3 side chain; on linkers, the order of the positions; unused ones are H or OH. Bridge positions count the residues as written; N and C are the ends. Square brackets hold non-standard residues; d marks the D form. Peptide text beside a SMILES is read from it. * marks the point of attachment. Acetyl(1-DOTA-4-piperidyl) = O=C(O)CN1CCN(CC(=O)O)CCN(CC(=O)N2CCC(CC(=O)*)CC2)CCN(CC(=O)O)CC1; X3 = O=C(O)CN1CCN(CC(=O)O)CCN(CC(=O)NCCCOCCOCCOCCCN*)CCN(CC(=O)O)CC1; X2 = O=C(O)CN1CCN(CC(=O)O)CCN([C@H](CCC(=O)*)C(=O)O)CCN(CC(=O)O)CC1; DOTA = O=C(O)CN1CCN(CC(=O)O)CCN(CC(=O)*)CCN(CC(=O)O)CC1; Phe(4-Cl) = N[C@@H](Cc1ccc(Cl)cc1)C(=O)O; Ethylenediamine = C(CN[*:2])N[*:1]; X1 = O=C(CC1CCN([*:1])CC1)[*:2]; Cit = NC(=O)NCCC[C@H](N)C(=O)O; Suc = O=C(CCC(=O)[*:2])[*:1]; Tle = CC(C)(C)[C@H](N)C(=O)O; Hexanoyl = CCCCCC(=O)*; Aib = CC(C)(N)C(=O)O

How the values were obtained:
[1] = test system: PC3-PIP tumor model; set-up: species or system mice; conditions: mouse, in vivo
From the text: Radioactively labeled compounds can be detected by imaging methods such as SPECT and PET. Furthermore, the data acquired by such techniques can be confirmed by direct measurement of radioactivity contained in the individual organs prepared from an animal injected with a radioactively labeled compound of the disclosure. Thus, the biodistribution (the measurement of radioactivity in individual organs) of a radioactively labeled compound can be determined and analyzed. […] All animal experiments were conducted in compliance with the German animal protection laws. Male swiss or NMRI nude mice (6-8 weeks old, Janvier Labs, France) were inoculated with 5×10^6 PC3-PIP cells in the right shoulder. For selected compounds an additional model was used, here male NMRI nude mice (6-8 weeks old, Janvier Labs, France) were inoculated with 5×10^6 or/1×10^7 C4-2 cells in the right shoulder. When tumors reached an appropriate size, the mice received ˜30 MBq ^111In-labeled compounds of the disclosure (diluted to 100 μL with PBS) administered intravenously via the tail vein. Images were obtained on a NanoSPECT/computed tomography system (Mediso Medical Imaging Systems, Budapest, Hungary) using exemplarily the following acquisition and reconstruction parameters (Table 10). [table] Imaging data were saved as DICOM files and analysed using VivoQuant™ software (Invicro, Boston, USA). In brief, regions of interest (ROIs) were drawn based on computed tomography images for the relevant organs and tissue regions such as heart (estimate of blood pool, bps), kidney, and tumor. The resulting numeric data expressed as a percentage of injected dose per gram of tissue (% ID/g) are presented in FIGS. 3(a)-3(ii) for the PC3-PIP model and FIGS. 4(a)-4(r) for the C4-2 model. Bars show mean % ID/g values of two to three animals per time point. Error bars indicate the value range (minimum and maximum values).

[2] = biological target: T1, PSMA-expressing C4-2 cells (Homo sapiens, UniProt Q04609); experiment: FACS binding assay (competition with 50 nM PSM-0183); conditions: FACS binding, C4-2 cells, competition with 50 nM PSM-0183; category; read-out: pIC50 [C4-2] CAT (converted)
T1 construct: PSMA-expressing C4-2 cells (ATCC, Cat. No. CRL-3314) were cultured in RPMI-1640; host or cells: C4-2 cells
T1 sequence (Q04609 whole entry): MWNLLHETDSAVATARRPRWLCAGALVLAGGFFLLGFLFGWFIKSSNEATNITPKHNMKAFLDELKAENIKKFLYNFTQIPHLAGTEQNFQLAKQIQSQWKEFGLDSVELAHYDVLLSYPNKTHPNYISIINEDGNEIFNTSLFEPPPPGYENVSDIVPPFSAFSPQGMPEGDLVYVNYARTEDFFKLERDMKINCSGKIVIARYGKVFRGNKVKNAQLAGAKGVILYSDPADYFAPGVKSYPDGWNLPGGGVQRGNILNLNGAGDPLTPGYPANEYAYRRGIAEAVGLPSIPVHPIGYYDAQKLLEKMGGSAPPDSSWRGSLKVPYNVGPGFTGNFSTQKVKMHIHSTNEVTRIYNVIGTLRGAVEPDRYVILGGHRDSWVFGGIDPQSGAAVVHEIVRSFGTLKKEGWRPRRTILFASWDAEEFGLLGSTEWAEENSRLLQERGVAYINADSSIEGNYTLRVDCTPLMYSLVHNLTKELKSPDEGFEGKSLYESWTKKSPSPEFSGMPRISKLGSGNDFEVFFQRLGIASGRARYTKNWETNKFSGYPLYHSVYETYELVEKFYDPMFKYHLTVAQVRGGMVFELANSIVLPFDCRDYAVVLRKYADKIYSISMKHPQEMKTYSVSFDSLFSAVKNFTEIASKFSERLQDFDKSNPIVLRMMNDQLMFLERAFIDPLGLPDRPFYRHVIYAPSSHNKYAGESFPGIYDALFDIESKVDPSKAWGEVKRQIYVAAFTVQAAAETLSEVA
Summary of the method: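 Competition format: fluorescent tracer PSM-0183 (50 nM) displaced from PSMA on C4-2 cells by a test compound titration over 1 h at 4 °C. Bound tracer was quantified as flow-cytometric AF488 median fluorescence after washing. Four-parameter logistic fits of MFI data gave IC50 and pIC50.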

[3] = biological target: T2, Fc-fusion protein of human PSMA (hPSMA-Fc) (Homo sapiens, UniProt Q04609); experiment: Surface plasmon resonance assay (Biacore T200, single cycle kinetic); type: binding; conditions: SPR, hPSMA-Fc, single cycle kinetic, 25° C.; category; read-out: pKD CAT (converted)
T2 construct: purchased Acro Biosystems PSA-H5264
T2 sequence (Q04609 44-750 limits assumed): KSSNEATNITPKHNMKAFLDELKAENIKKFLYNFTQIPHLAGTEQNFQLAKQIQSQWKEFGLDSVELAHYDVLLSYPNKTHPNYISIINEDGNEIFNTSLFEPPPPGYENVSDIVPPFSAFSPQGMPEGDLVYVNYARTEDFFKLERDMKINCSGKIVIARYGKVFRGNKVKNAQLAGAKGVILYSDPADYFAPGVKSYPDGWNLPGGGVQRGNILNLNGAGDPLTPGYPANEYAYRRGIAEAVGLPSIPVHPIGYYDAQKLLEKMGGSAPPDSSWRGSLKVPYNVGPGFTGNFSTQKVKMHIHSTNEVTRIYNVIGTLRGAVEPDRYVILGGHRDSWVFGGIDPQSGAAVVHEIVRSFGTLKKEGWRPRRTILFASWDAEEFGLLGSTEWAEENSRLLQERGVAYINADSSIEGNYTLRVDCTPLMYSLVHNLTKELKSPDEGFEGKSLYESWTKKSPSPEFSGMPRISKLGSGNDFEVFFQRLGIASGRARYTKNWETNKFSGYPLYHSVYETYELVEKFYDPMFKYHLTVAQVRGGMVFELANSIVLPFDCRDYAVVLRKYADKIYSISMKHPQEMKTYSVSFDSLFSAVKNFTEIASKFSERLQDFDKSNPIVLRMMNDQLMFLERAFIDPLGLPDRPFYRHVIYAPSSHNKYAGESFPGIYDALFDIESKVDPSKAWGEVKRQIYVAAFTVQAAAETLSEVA
Summary of the method: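 KD, expressed as pKD, came from 1:1 Langmuir fits of reference- and buffer-blank-subtracted SPR data. The runs were single-cycle kinetics at 25° C in HBST/0.1% DMSO over human PSMA-Fc, captured to ~1000 RU on a peptide-coated CM5 surface and regenerated with 10 mM glycine pH 1.5.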

SMILES: C[C@@H](O)[C@H](NC(=O)[C@@H](NC(=O)[C@@H]1CSSC[C@H](NC(=O)[C@H](Cc2ccccc2)NC(=O)C(C)(C)NC(=O)[C@@H](NC(=O)CC2CCN(C(=O)CC[C@H](C(=O)O)N3CCN(CC(=O)O)CCN(CC(=O)O)CCN(CC(=O)O)CC3)CC2)[C@@H](C)O)C(=O)N[C@@H](CCCCN)C(=O)N[C@@H](CCCNC(=N)N)C(=O)NC(C)(C)C(=O)N[C@@H](CC(N)=O)C(=O)N1)C(C)(C)C)C(N)=O [PSM-0218, DOTAGA-Cmp-Thr-Aib-Phe-[Cys-Lys-Arg-Aib-Asn-Cys]-Tle-Thr-NH2] (X2-[X1]T[Aib]FCKR[Aib]NC[Tle]T-NH2; disulfide 5-10)
AUC ratio [T/K] [1]: 1.2 | Tumor AUC [1]: 150 % ID/g*h | IC50 [2]: < 200 nM | Kd [3]: < 12.6 nM

SMILES: C[C@@H](O)[C@H](NC(=O)[C@@H](NC(=O)[C@@H]1CSSC[C@H](NC(=O)[C@H](Cc2ccccc2)NC(=O)C(C)(C)NC(=O)[C@@H](NC(=O)CCC(=O)NCCCOCCOCCOCCCNC(=O)CN2CCN(CC(=O)O)CCN(CC(=O)O)CCN(CC(=O)O)CC2)[C@@H](C)O)C(=O)N[C@@H](CCCCN)C(=O)N[C@@H](CCCNC(N)=O)C(=O)NC(C)(C)C(=O)N[C@@H](CC(N)=O)C(=O)N1)C(C)(C)C)C(N)=O [PSM-0234, DOTA-Ttds-Thr-Aib-Phe-[Cys-Lys-Cit-Aib-Asn-Cys]-Tle-Thr-NH2] ({X3-Suc}-T[Aib]FCK[Cit][Aib]NC[Tle]T-NH2; disulfide 4-9)
AUC ratio [T/K] [1]: 0.64 | Tumor AUC [1]: 62 % ID/g*h | IC50 [2]: 200 to 1260 nM | Kd [3]: 12.6 to 126 nM

SMILES: CCCCCC(=O)N[C@H](C(=O)NC(C)(C)C(=O)N[C@@H](Cc1ccc(Cl)cc1)C(=O)N[C@H]1CSSC[C@@H](C(=O)N[C@H](C(=O)N[C@H](C(=O)N[C@H](CCCCNC(=O)CC2CCN(C(=O)CN3CCN(CC(=O)O)CCN(CC(=O)O)CCN(CC(=O)O)CC3)CC2)C(N)=O)[C@@H](C)O)C(C)(C)C)NC(=O)[C@H](CC(N)=O)NC(=O)C(C)(C)NC(=O)[C@H](CCCNC(N)=O)NC(=O)[C@H](CCCCN)NC1=O)[C@@H](C)O [PSM-0239, Hex-Thr-Aib-Pcf-[Cys-Lys-Cit-Aib-Asn-Cys]-Tle-Thr-lys(DOTA-Cmp)-NH2] (Hexanoyl-T[Aib][Phe(4-Cl)]CK[Cit][Aib]NC[Tle]T[dK](Acetyl(1-DOTA-4-piperidyl))-NH2; disulfide 4-9)
AUC ratio [T/K] [1]: 1.2 | Tumor AUC [1]: 210 % ID/g*h | IC50 [2]: < 200 nM | Kd [3]: < 12.6 nM

Other lines, results leading:

AUC ratio [T/K] [1]: 0.33 | Tumor AUC [1]: 170 % ID/g*h | IC50 [2]: < 200 nM | Kd [3]: < 12.6 nM
SMILES: C[C@@H](O)[C@H](NC(=O)CN1CCN(CC(=O)O)CCN(CC(=O)O)CCN(CC(=O)O)CC1)C(=O)NC(C)(C)C(=O)N[C@@H](Cc1ccccc1)C(=O)N[C@H]1CSSC[C@@H](C(=O)N[C@H](C(=O)NCCN)C(C)(C)C)NC(=O)[C@H](CC(N)=O)NC(=O)C(C)(C)NC(=O)[C@H](CCCNC(=N)N)NC(=O)[C@H](CCCCN)NC1=O [PSM-0199, DOTA-Thr-Aib-Phe-[Cys-Lys-Arg-Aib-Asn-Cys]-Tle-en] ({DOTA}-T[Aib]FCKR[Aib]NC[Tle]-Ethylenediamine; disulfide 4-9)

AUC ratio [T/K] [1]: 0.44 | Tumor AUC [1]: 180 % ID/g*h | IC50 [2]: < 200 nM | Kd [3]: < 12.6 nM
SMILES: C[C@@H]1NC(=O)[C@H](CCCNC(=N)N)NC(=O)[C@H](CCCCN)NC(=O)[C@@H](NC(=O)[C@H](Cc2ccccc2)NC(=O)C(C)(C)NC(=O)[C@@H](NC(=O)CCC(=O)NCCCOCCOCCOCCCNC(=O)CN2CCN(CC(=O)O)CCN(CC(=O)O)CCN(CC(=O)O)CC2)[C@@H](C)O)CSSC[C@@H](C(=O)N[C@H](C(=O)N[C@H](C(N)=O)[C@@H](C)O)C(C)(C)C)NC(=O)[C@H](CC(N)=O)NC1=O [PSM-0237, DOTA-Ttds-Thr-Aib-Phe-[Cys-Lys-Arg-Ala-Asn-Cys]-Tle-Thr-NH2] ({X3-Suc}-T[Aib]FCKRANC[Tle]T-NH2; disulfide 4-9)
